Test system: Acinetobacter baumannii strains
Assay: Antibiotic susceptibility test (CLSI disk diffusion test method, read per CLSI 2016)
Assay type: cell-based
Design: antibiotic susceptibility test value / susceptibility test value (number given before S/I/R) / antibiotic susceptibility value: unit not given here
Protocol: (§1) Strain identification was performed using a kit such as AT 32 GN system (bioMérieux, Marcy l'Etoile, France). […] In Table 2 below, S, I, and R are the results obtained by evaluating susceptibility to the antibacterial agents, in which ‘S’ means susceptible, ‘I’ means intermediate, and ‘R’ means resistant.
as §1, with “as ATB” for “as AT”, “system (bioMédrieux,” for “system (bioMérieux,”, “Table 6” for “Table 2”
as §1, with “as ATB” for “as AT”, “Table 10” for “Table 2”, “susceptible, T” for “susceptible, ‘I’”

CCN1CCN(C(=O)N[C@@H](C(=O)N[C@@H]2C(=O)N3[C@@H]2SC(C)(C)[C@@H]3C(=O)O)c2ccccc2)C(=O)C1=O [Piperalillinc]
antibiotic susceptibility S/I/R (host strain YMC14/06/R2359): R
antibiotic susceptibility value (host strain YMC14/06/R2359): 128
antibiotic susceptibility S/I/R (host strain YMC14/08/R1169): R
antibiotic susceptibility value (host strain YMC14/08/R1169): 128
antibiotic susceptibility S/I/R (host strain YMC14/08/T90): R
antibiotic susceptibility value (host strain YMC14/08/T90): 128
antibiotic susceptibility S/I/R (host strain YMC15/02/R436): R
antibiotic susceptibility value (host strain YMC15/02/R436): 128
antibiotic susceptibility S/I/R (host strain YMC15/02/T28): R
antibiotic susceptibility value (host strain YMC15/02/T28): 128
antibiotic susceptibility S/I/R (host strain YMC15/03/R1604): R
antibiotic susceptibility value (host strain YMC15/03/R1604): 128
antibiotic susceptibility S/I/R (host strain YMC15/09/R1869): R
antibiotic susceptibility value (host strain YMC15/09/R1869): 128
antibiotic susceptibility S/I/R (host strain YMC16/01/P11): R
antibiotic susceptibility value (host strain YMC16/01/P11): 128
antibiotic susceptibility S/I/R (host strain YMC16/01/R123): R
antibiotic susceptibility value (host strain YMC16/01/R123): 128
antibiotic susceptibility S/I/R (host strain YMC16/01/R198): R
antibiotic susceptibility value (host strain YMC16/01/R198): 128
antibiotic susceptibility S/I/R (host strain YMC16/01/R353): R
antibiotic susceptibility value (host strain YMC16/01/R353): 128
antibiotic susceptibility S/I/R (host strain YMC16/01/R380): R
antibiotic susceptibility value (host strain YMC16/01/R380): 128
antibiotic susceptibility S/I/R (host strain YMC16/01/R397): R
antibiotic susceptibility value (host strain YMC16/01/R397): 128
antibiotic susceptibility S/I/R (host strain YMC16/01/R405): R
antibiotic susceptibility value (host strain YMC16/01/R405): 128
antibiotic susceptibility S/I/R (host strain YMC16/03/R4461): R
antibiotic susceptibility value (host strain YMC16/03/R4461): 128
antibiotic susceptibility S/I/R (host strain YMC16/05/R2210): R
antibiotic susceptibility value (host strain YMC16/05/R2210): 128
antibiotic susceptibility S/I/R (host strain YMC16/07/R2512): R
antibiotic susceptibility value (host strain YMC16/07/R2512): 128
antibiotic susceptibility S/I/R (host strain YMC16/09/R2471): R
antibiotic susceptibility value (host strain YMC16/09/R2471): 128
antibiotic susceptibility S/I/R (host strain YMC16/10/R2537): R
antibiotic susceptibility value (host strain YMC16/10/R2537): 128
antibiotic susceptibility S/I/R (host strain YMC16/12/B11422): R
antibiotic susceptibility value (host strain YMC16/12/B11422): 128
antibiotic susceptibility S/I/R (host strain YMC16/12/B11449): R
antibiotic susceptibility value (host strain YMC16/12/B11449): 128
antibiotic susceptibility S/I/R (host strain YMC16/12/B13325): R
antibiotic susceptibility value (host strain YMC16/12/B13325): 128
antibiotic susceptibility S/I/R (host strain YMC16/12/P503): R
antibiotic susceptibility value (host strain YMC16/12/P503): 128
antibiotic susceptibility S/I/R (host strain YMC16/12/R4637): R
antibiotic susceptibility value (host strain YMC16/12/R4637): 128
antibiotic susceptibility S/I/R (host strain YMC17/01/B8053): R
antibiotic susceptibility value (host strain YMC17/01/B8053): 128
antibiotic susceptibility S/I/R (host strain YMC17/01/B10087): R
antibiotic susceptibility value (host strain YMC17/01/B10087): 128
antibiotic susceptibility S/I/R (host strain YMC17/01/B12075): R
antibiotic susceptibility value (host strain YMC17/01/B12075): 128
antibiotic susceptibility S/I/R (host strain YMC17/01/B13454): R
antibiotic susceptibility value (host strain YMC17/01/B13454): 128
antibiotic susceptibility S/I/R (host strain YMC17/01/P518): R
antibiotic susceptibility value (host strain YMC17/01/P518): 128
antibiotic susceptibility S/I/R (host strain YMC17/01/R2812): R
antibiotic susceptibility value (host strain YMC17/01/R2812): 128
antibiotic susceptibility S/I/R (host strain YMC17/02/B14): R
antibiotic susceptibility value (host strain YMC17/02/B14): 128
antibiotic susceptibility S/I/R (host strain YMC17/02/B87): R
antibiotic susceptibility value (host strain YMC17/02/B87): 128
antibiotic susceptibility S/I/R (host strain YMC17/02/B721): R
antibiotic susceptibility value (host strain YMC17/02/B721): 128
antibiotic susceptibility S/I/R (host strain YMC17/02/B4039): R
antibiotic susceptibility value (host strain YMC17/02/B4039): 128
antibiotic susceptibility S/I/R (host strain YMC17/02/B4520): R
antibiotic susceptibility value (host strain YMC17/02/B4520): 128
antibiotic susceptibility S/I/R (host strain YMC17/02/B4864): S
antibiotic susceptibility value (host strain YMC17/02/B4864): 8
antibiotic susceptibility S/I/R (host strain YMC17/02/B8414): R
antibiotic susceptibility value (host strain YMC17/02/B8414): 128
antibiotic susceptibility S/I/R (host strain YMC17/02/P523): R
antibiotic susceptibility value (host strain YMC17/02/P523): 128
antibiotic susceptibility S/I/R (host strain YMC17/02/R541): R
antibiotic susceptibility value (host strain YMC17/02/R541): 128
antibiotic susceptibility S/I/R (host strain YMC17/02/R2392): R
antibiotic susceptibility value (host strain YMC17/02/R2392): 128
antibiotic susceptibility S/I/R (host strain YMC17/03/B4730): R
antibiotic susceptibility value (host strain YMC17/03/B4730): 128
antibiotic susceptibility S/I/R (host strain YMC17/03/B5000): R
antibiotic susceptibility value (host strain YMC17/03/B5000): 128
antibiotic susceptibility S/I/R (host strain YMC17/03/P971): R
antibiotic susceptibility value (host strain YMC17/03/P971): 128
antibiotic susceptibility S/I/R (host strain YMC17/03/R348): R
antibiotic susceptibility value (host strain YMC17/03/R348): 128
antibiotic susceptibility S/I/R (host strain YMC17/03/R585): R
antibiotic susceptibility value (host strain YMC17/03/R585): 128
antibiotic susceptibility S/I/R (host strain YMC17/03/R1888): R
antibiotic susceptibility value (host strain YMC17/03/R1888): 128
antibiotic susceptibility S/I/R (host strain YMC17/03/R3279): R
antibiotic susceptibility value (host strain YMC17/03/R3279): 128
antibiotic susceptibility S/I/R (host strain YMC17/03/R4077): R
antibiotic susceptibility value (host strain YMC17/03/R4077): 128
antibiotic susceptibility S/I/R (host strain YMC17/03/R4607): R
antibiotic susceptibility value (host strain YMC17/03/R4607): 128
antibiotic susceptibility S/I/R (host strain YMC17/04/R488): R
antibiotic susceptibility value (host strain YMC17/04/R488): 128
antibiotic susceptibility S/I/R (host strain YMC17/04/R640): R
antibiotic susceptibility value (host strain YMC17/04/R640): 128
antibiotic susceptibility S/I/R (host strain YMC/17/05/R1095): R
antibiotic susceptibility value (host strain YMC/17/05/R1095): 128
